Assay [1] concerns the target T1, IL-33 (Homo sapiens, UniProt O95760).
T1 sequence (O95760 95-270): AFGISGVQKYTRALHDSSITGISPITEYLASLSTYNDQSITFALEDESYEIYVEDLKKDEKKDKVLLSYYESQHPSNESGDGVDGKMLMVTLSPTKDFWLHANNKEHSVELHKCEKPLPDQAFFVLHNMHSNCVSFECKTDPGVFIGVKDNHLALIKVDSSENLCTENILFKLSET
Put plainly: Inhibition of IL-6 secretion by IL-33 inhibition in HMC-1 cells (IL-6 ELISA). The class given is cell-based. The note with it: HMC1, HMC-1 cells with IL-33, 24 h, negative values indicate increased IL-6 secretion. How it is done: First, HMC-1, a human mast cell line, was cultured until an appropriate number of cells was maintained in a 96-well plate. Mixtures of IL-33 and different concentrations (0.3, 3, and 30 μM) of each of the inventive compounds were treated on cells, incubated at 37° C. for 24 h, and centrifuged. The supernatants were analyzed for IL-6 secretion using an IL-6 ELISA kit (Biolegend, USA).

Another assay concerns the target T2, TSLP-TSLPR interaction (Homo sapiens, UniProt Q969D9).
T2 construct: made in house
Description: ELISA-based TSLP-TSLPR interaction assay. The class given is binding. The note with it: for inhibition at 100 µM: compound 0.1 mM; for inhibition at 100 µM / inhibition at 300 µM / inhibition at 1000 µM: FLAG-TSLP / TSLPR-His ELISA, OD 450 nm; for inhibition at 300 µM: compound 0.3 mM; for inhibition at 1000 µM: compound 1 mM. How it is done:
To this end, home-made FLAG-TSLP protein and TSLPR-His protein were used to establish an ELISA-based TSLP-TSLPR interaction assay for measuring reactions with HRP. The inhibitory activities of the inventive compounds were evaluated by the interaction assay.
ELISA assay was conducted using an Ni-NTA HisSorb plate (Qiagen, Germany). 100 μL of a solution of TSLPR C-terminally tagged with hexahistidine (His) was dispensed into each well of the plate and incubated at room temperature for 2 h. After each well was washed twice with 200 μL of PBS and 0.05% Tween-20, 100 μL of a solution of each of the inventive compounds as a sample and 100 μL of TSLP N-terminally tagged with FLAG was dispensed into the well. After incubation at 4° C. overnight, each well was washed twice and treated with 100 μL of a blocking buffer (PBS-0.05% Tween 20 and 1% nonfat dry milk). The plate was washed twice, coated with 100 μL of a monoclonal anti-FLAG horseradish peroxidase antibody (Sigma-Aldrich Co., USA) for 2 h, and incubated at room temperature. Then, each well was washed 5 times, treated with 200 μL of a solution of o-phenylenediaminedihydrochloride (Sigma-Aldrich Co., USA), incubated for 30 min, and added with 1 N HCl.
Optical densities (ODs) were measured at 450 nm using a microplate spectrophotometer. The inhibitory effect of the compound on TSLP-TSLPR interaction was calculated using the following equation: Inhibition (inhibitory effect) (%)=(1−ODsample/ODcontrol)×100

In assay [2] the test system is HDM-induced allergic airway inflammation. Description: House dust mite (HDM)-induced allergic airway inflammation mouse models. Type of assay: in vivo. The note with it: 200 μg intraperitoneal, BALB/c mice, day 11, vs untreated controls (FIG. 4 and 5). How it is done:
Splenocytes were isolated from DO11.10 mice and ˜1×10^6CD4T cells were transferred to pure BALB/c mice by intravenous injection. For 3 days from the next day, 100 μg of a mixture of HDM (Dermatophagoidesfarinae 50 μg, Dermatophagoidespteronyssinus 50 μg, Greer Laboratories, Inc., USA) and OVA (Sigma-Aldrich Co., USA) was administered intranasally to the mice. From day 2 after administration, the mice were treated with 200 μg of each of the inventive compounds or PBS (for control mice) three times daily through the intraperitoneal route. After the mice were euthanized on day 11, the numbers of total cells and eosinophils in the airways were checked. The treatment schedule with the Formula 5 (KB 1517) and Formula 10 (KB 1518) (200 μg each) in house dust mite (HDM)-induced allergic airway inflammation mouse models is shown in FIG. 8.

The target in assay [3] is T1, IL-33. Description: Inhibition of IL-6 secretion by IL-33 inhibition in HMC-1 cells (IL-6 ELISA). The class given is cell-based. The settings on record: HMC1, HMC-1 cells with IL-33, 24 h, negative values indicate increased IL-6 secretion. The source holds these as a separate data set.

For `CN(C)CCn1c(=O)c2nc(-c3ccc(Cl)cc3)oc2c2ccccc21` [Compound 4, 2-(4-chlorophenyl)-5-(2-(dimethylamino)ethyl)oxazolo[4,5-c]quinolin-4(5H)-one], on IL-33 [1], the inhibition at 0.3 µM was 22.5% and the inhibition at 3 µM stood at 29.7%. Also, at TSLP-TSLPR interaction, the inhibition at 100 µM came out at 28.8% and the inhibition at 300 µM was found to be 46.6%.
Turning to `CN(C)CCn1c(=O)c2nc(-c3ccc(F)cc3)oc2c2ccccc21` [Compound 3, 5-(2-(dimethylamino)ethyl)-2-(4-fluorophenyl)oxazolo[4,5-c]quinolin-4(5H)-one], the inhibition at 3 µM at IL-33 [1] was found to be 29.8%. On TSLP-TSLPR interaction, the inhibition at 100 µM came to 17.7% and the inhibition at 300 µM amounted to 27.5%.
In the case of `CN(C)CCn1c(=O)c2nc(-c3ccccc3)oc2c2ccccc21` [Compound 2, 5-(2-(dimethylamino)ethyl)-2-phenyloxazolo[4,5-c]quinolin-4(5H)-one], at IL-33 [1], the inhibition at 3 µM was -11.8%. Besides, at TSLP-TSLPR interaction, the inhibition at 100 µM came to 26.7%, the inhibition at 300 µM came out at 49% and the inhibition at 1000 µM turned out to be 66.9%.
Regarding `CN(C)CCOc1nc2ccccc2c2oc(-c3ccc(C(F)(F)F)cc3)nc12` [Compound 10, N,N-dimethyl-2-((2-(4-(trifluoromethyl)phenyl)oxazolo[4,5-c]quinolin-4-yl)oxy)ethanamine], in assay [2], the “number of eosinophils in the airways” value was “significantly reduced” and the “number of total cells in the airways” value is on record as “significantly reduced”. For the same compound, the inhibition at 0.03 µM against IL-33 [3] is 32.7%. For the same compound, on IL-33 [1], the inhibition at 0.3 µM was 49.3% and the inhibition at 3 µM was 51.3%.
For the compound `CN(C)CCOc1nc2ccccc2c2oc(-c3ccccc3)nc12` [Compound 7, N,N-dimethyl-2-((2-phenyloxazolo[4,5-c]quinolin-4-yl)oxy)ethanamine], the inhibition at 3 µM against IL-33 [1] stood at 35.6%. Moreover, at TSLP-TSLPR interaction, the inhibition at 100 µM came to 27.8%, the inhibition at 300 µM stood at 54.6% and the inhibition at 1000 µM came to 57.2%.
`COc1ccc(-c2nc3c(=O)n(CCN(C)C)c4ccccc4c3o2)cc1` [Compound 6, 5-(2-(dimethylamino)ethyl)-2-(4-methoxyphenyl)oxazolo[4,5-c]quinolin-4(5H)-one]: the inhibition at 3 µM at IL-33 [1] is -57.8%. At TSLP-TSLPR interaction, the inhibition at 100 µM is 25.8% and the inhibition at 300 µM worked out at 54.7%.
For `CN(C)CCn1c(=O)c2nc(-c3ccc(C(F)(F)F)cc3)oc2c2ccccc21` [Compound 5, 5-(2-(dimethylamino)ethyl)-2-(4-(trifluoromethyl)phenyl)oxazolo[4,5-c]quinolin-4(5H)-one], in assay [2], the “number of eosinophils in the airways” value was “significantly reduced” and the “number of total cells in the airways” value is “significantly reduced”. Moreover, on IL-33 [1], the inhibition at 0.3 µM amounted to 30.4% and the inhibition at 3 µM came to 28.2%. Moreover, at TSLP-TSLPR interaction, the inhibition at 100 µM came out at 23.2% and the inhibition at 300 µM is 29.6%.
As for “FLAG tag-free TSLP: TSLP protein without FLAG tag, 1 mg/mL, competitor control in the TSLP-TSLPR ELISA [reference compound]”, the “Inhibition (%)” value with TSLP-TSLPR interaction (1 mg/mL FLAG tag-free TSLP as competitor) amounted to 40.7%.
